The values that follow come from ChEMBL document CHEMBL1137630, “Development of resistance in wild-type and hypermutable Pseudomonas aeruginosa strains exposed to clinical pharmacokinetic profiles of meropenem and ceftazidime simulated in vitro” (Antimicrob Agents Chemother, 2007).

The Cmax is the maximum level reached in the sampled fluid or tissue. For orientation: half-life means the time in which the quantity being followed falls by half. A lower half-life goes with rapid decline.

Data set [1] relates to Pseudomonas aeruginosa. The experiment in a line: Antibacterial activity against Pseudomonas aeruginosa PAO1 in in vitro PK/PD model assessed as AAC (0 to 8 hrs) at 1 g infused thrice daily at 8 hrs interval measured after first dose. Type of data set: functional.
Data set [2] is described as follows: %T>MIC against Pseudomonas aeruginosa PAO1 in in vitro PK/PD model at 1 g infused thrice daily at 8 hrs interval. Type of data set: functional.
Data set [3] can be described thus: %T>MIC against hypermutable Pseudomonas aeruginosa isolate 12-09-15 in in vitro PK/PD model at 1 g infused thrice daily at 8 hrs interval. In kind it is functional.
Data set [4] relates to Pseudomonas aeruginosa. The experiment in a line: Antibacterial activity against Pseudomonas aeruginosa PAO1 by CLSI broth microdilution method. In kind it is functional.
Data set [5] can be described thus: Cmax in PK/PD in vitro model infused with 1g at 8hr intervals. The note with it: iv. Further details: dose 1 g. In kind it is ADME.
Data set [6] in a line: Half life in in vitro PK/PD model at 1 g infused thrice daily at 8 hrs interval. In kind it is ADME. Particulars: iv.
In data set [7] the test system is Pseudomonas aeruginosa. The experiment in a line: Antibacterial activity against Pseudomonas aeruginosa PAO1 assessed as maximum bactericidal effect in in vitro PK/PD model by measuring change in bacterial count at 1 g infused every 8 hrs interval measured 1 hr after first dose relative to initial inoculum. Type of data set: functional.
In data set [8] the test system is Pseudomonas aeruginosa. The experiment in a line: Antibacterial activity against hypermutable Pseudomonas aeruginosa isolate 12-09-15 assessed as maximum bactericidal effect in in vitro PK/PD model by measuring change in bacterial count at 1 g infused every 8 hrs interval measured 3 hrs after first dose relative to initial inoculum. In kind it is functional.
The subject of data set [9] is Pseudomonas aeruginosa. Put plainly: Antibacterial activity against Pseudomonas aeruginosa PAO1 assessed as reduction of bacterial count in in vitro PK/PD model at 1 g infused every 8 hrs interval measured after second dose relative to initial inoculum. In kind it is functional.
Data set [10] has as its system Pseudomonas aeruginosa. Put plainly: Antibacterial activity against Pseudomonas aeruginosa PAO1 assessed as change in bacterial count in in vitro PK/PD model at 1 g infused every 8 hrs interval measured after 8 hrs relative to initial inoculum. In kind it is functional, organism-based.
In data set [11] the test system is Pseudomonas aeruginosa. Put plainly: Antibacterial activity against hypermutable Pseudomonas aeruginosa isolate 12-09-15 assessed as change in bacterial count in in vitro PK/PD model at 1 g infused every 8 hrs interval measured after 8 hrs relative to initial inoculum. In kind it is functional, organism-based.
Data set [12] deals with Pseudomonas aeruginosa. Put plainly: Antibacterial activity against Pseudomonas aeruginosa PAO1 assessed as bacterial count in in vitro PK/PD model at 1 g infused every 8 hrs interval measured 40 hrs after first dose relative to initial inoculum. Type of data set: functional, organism-based.
Data set [13] has as its system Pseudomonas aeruginosa. The experiment in a line: Antibacterial activity against hypermutable Pseudomonas aeruginosa isolate 12-09-15 assessed as bacterial count in in vitro PK/PD model at 1 g infused every 8 hrs interval measured 40 hrs after first dose relative to initial inoculum. In kind it is functional, organism-based.
For data set [14], the system named is Pseudomonas aeruginosa. The experiment in a line: Antibacterial activity against Pseudomonas aeruginosa PAO1 in in vitro PK/PD model assessed as AAC (0 to 24 hrs) at 1 g infused thrice daily at 8 hrs interval. Type of data set: functional.
In data set [15] the test system is Pseudomonas aeruginosa. Put plainly: Antibacterial activity against hypermutable Pseudomonas aeruginosa isolate 12-09-15 in in vitro PK/PD model assessed as AAC (0 to 24 hrs) at 1 g infused thrice daily at 8 hrs interval. Type of data set: functional.
A short description of data set [16]: Ratio of Cmax in in vitro PK/PD model at 1 g infused at every 8 hrs intervals to MIC for Pseudomonas aeruginosa PAO1. Type of data set: functional.
Data set [17] is described as follows: Ratio of Cmax in in vitro PK/PD model at 1 g infused at every 8 hrs intervals to MIC for hypermutable Pseudomonas aeruginosa isolate 12-09-15. Type of data set: functional.
For data set [18], the system named is Pseudomonas aeruginosa. Put plainly: Antibacterial activity against Pseudomonas aeruginosa PAO1/MEM mutant by CLSI broth microdilution method. Type of data set: functional. (In general: In broth dilution the organism is exposed to a series of concentrations in liquid medium.)
The test system of data set [19] is Pseudomonas aeruginosa. The experiment in a line: Antibacterial activity against hypermutable Pseudomonas aeruginosa 12-09-15/MEM mutant by broth microdilution method.
The test system of data set [20] is Pseudomonas aeruginosa. Put plainly: microbe, parasite or virus in culture. Particulars: isolate 12-09-15.
Description: Antibacterial activity against hypermutable Pseudomonas aeruginosa isolate 12-09-15 by CLSI broth microdilution method
For data set [21], the system named is Pseudomonas aeruginosa. The experiment in a line: Antibacterial activity against Pseudomonas aeruginosa PAO1 at 30 ug/disk in presence of cephalosporinase inhibitor cloxacillin by disk diffusion test. The note with it: read-out: DIZ. Type of data set: functional. In general terms: Agar diffusion results depend on both activity and mobility in agar.
Data set [22] relates to Pseudomonas aeruginosa. The experiment in a line: Antibacterial activity against Pseudomonas aeruginosa PAO1 at 30 ug/disk in absence of cephalosporinase inhibitor cloxacillin by disk diffusion test. Particulars: read-out: DIZ. In kind it is functional.
The test system of data set [23] is Pseudomonas aeruginosa. The experiment in a line: Antibacterial activity against Pseudomonas aeruginosa PAO1/CAZ mutant at 30 ug/disk in presence of cephalosporinase inhibitor cloxacillin by disk diffusion test. Type of data set: functional. Particulars: read-out: DIZ.
Data set [24] relates to Pseudomonas aeruginosa. Put plainly: Antibacterial activity against Pseudomonas aeruginosa PAO1 in in vitro PK/PD model assessed as AAC (0 to 8 hrs) at 2 g infused thrice daily at 8 hrs interval measured after first dose. In kind it is functional.
Data set [25] can be described thus: %T>MIC against Pseudomonas aeruginosa PAO1 in in vitro PK/PD model at 2 g infused thrice daily at 8 hrs interval. Type of data set: functional.
Data set [26] can be described thus: %T>MIC against hypermutable Pseudomonas aeruginosa 12-09-15 isolate in in vitro PK/PD model at 2 g infused thrice daily at 8 hrs interval. Type of data set: functional.
Data set [27] has as its system Pseudomonas aeruginosa. The experiment in a line: Antibacterial activity against Pseudomonas aeruginosa PAO1/CAZ mutant at 30 ug/disk in absence of cephalosporinase inhibitor cloxacillin by disk diffusion test. In kind it is functional. Particulars: read-out: DIZ.
The test system of data set [28] is Pseudomonas aeruginosa. Put plainly: Antibacterial activity against Pseudomonas aeruginosa PAO1 assessed as reduction of bacterial count in in vitro PK/PD model at 2 g infused every 8 hrs interval measured after first dose relative to initial inoculum. In kind it is functional, organism-based.
The nature of data set [29]: Cmax in PK/PD in vitro model infused with 2g at 8hr intervals. The note with it: iv. In kind it is ADME. Also noted: dose 2 g.
The nature of data set [30]: Half life in in vitro PK/PD model at 2 g infused thrice daily at 8 hrs interval. The note with it: iv. Type of data set: ADME.
The test system of data set [31] is Pseudomonas aeruginosa. The experiment in a line: Antibacterial activity against Pseudomonas aeruginosa PAO1 assessed as reduction of bacterial count in in vitro PK/PD model at 2 g infused every 8 hrs interval measured after second dose relative to initial inoculum. In kind it is functional.
In data set [32] the test system is Pseudomonas aeruginosa. Put plainly: Antibacterial activity against Pseudomonas aeruginosa PAO1 assessed as bacterial count in in vitro PK/PD model at 2 g infused every 8 hrs interval measured 40 hrs after first dose relative to initial inoculum. In kind it is functional, organism-based.
The test system of data set [33] is Pseudomonas aeruginosa. Put plainly: Antibacterial activity against Pseudomonas aeruginosa PAO1 in in vitro PK/PD model assessed as AAC (0 to 24 hrs) at 2 g infused thrice daily at 8 hrs interval. Type of data set: functional.
The test system of data set [34] is Pseudomonas aeruginosa. Put plainly: Antibacterial activity against Pseudomonas aeruginosa PAO1/CAZ mutant by CLSI broth microdilution method. In kind it is functional.
The subject of data set [35] is Pseudomonas aeruginosa. Put plainly: Antibacterial activity against Pseudomonas aeruginosa PAO1 assessed as maximum bactericidal effect in in vitro PK/PD model by measuring change in bacterial count at 2 g infused every 8 hrs interval measured 17.5 hrs after initial dose relative to initial inoculum.

Values after ≈ are worked out from the molar mass of the structure shown. Active and inactive are the calls of the source. The rule behind the calls is not given here.

In the case of `C[C@@H](O)[C@H]1C(=O)N2C(C(=O)O)=C(S[C@@H]3CN[C@H](C(=O)N(C)C)C3)[C@H](C)[C@H]12` [MEROPENEM], the AAC in the data set with Pseudomonas aeruginosa [1] is 5.3 deltalog10CFU/ml.hr; with Pseudomonas aeruginosa [14], -22.46 deltalog10CFU/ml.hr; in the data set with Pseudomonas aeruginosa [15] it was -19.58 deltalog10CFU/ml.hr. The T>MIC in data set [2] came out at 66.7%; in [3], 41.7%. For the same compound, the MIC against Pseudomonas aeruginosa [4] worked out at 0.5 µg/mL (≈ 1.3 µM); in the data set on Pseudomonas aeruginosa [18], 4 µg/mL (≈ 10.4 µM); in the data set on Pseudomonas aeruginosa [19], 16 µg/mL (≈ 41.7 µM); against Pseudomonas aeruginosa [20], 2 µg/mL (≈ 5.22 µM). This compound also had a Cmax in [5] of 56.1 µg/mL. Moreover, the half-life in data set [6] is 0.45 h. In addition, the deltalog10CFU in the data set on Pseudomonas aeruginosa [7] is reported as -1.09 /ml; in the data set on Pseudomonas aeruginosa [8], -1.23 /ml; with Pseudomonas aeruginosa [9], -0.83 /ml. Besides, the outcome in the data set with Pseudomonas aeruginosa [10], in the data set on Pseudomonas aeruginosa [11], in the data set with Pseudomonas aeruginosa [12] and in the data set with Pseudomonas aeruginosa [13] was inactive. For the same compound, the Ratio amounted to 112 in data set [16] and 28.1 in data set [17].

As to `CC(C)(O/N=C(\C(=O)N[C@@H]1C(=O)N2C(C(=O)[O-])=C(C[n+]3ccccc3)CS[C@H]12)c1csc(N)n1)C(=O)O` [CEFTAZIDIME], the zone of inhibition at 30 µg/disc in the data set with Pseudomonas aeruginosa [21] is 27 mm; in the data set on Pseudomonas aeruginosa [22], 27 mm; with Pseudomonas aeruginosa [23], 27 mm; with Pseudomonas aeruginosa [27], 17 mm. Also, the AAC with Pseudomonas aeruginosa [24] is -0.19 deltalog10CFU/ml.hr; with Pseudomonas aeruginosa [33] it was 9.29 deltalog10CFU/ml.hr. Besides, the values for the T>MIC in data set [25] and in data set [26] were 100% and 45.8%, respectively. For the same compound, the outcome in the data set with Pseudomonas aeruginosa [28] and in the data set on Pseudomonas aeruginosa [32] was inactive. The MIC with Pseudomonas aeruginosa [4] amounted to 2 µg/mL (≈ 3.66 µM); in the data set with Pseudomonas aeruginosa [34] it was 32 µg/mL (≈ 58.5 µM); with Pseudomonas aeruginosa [20], 16 µg/mL (≈ 29.3 µM). Moreover, in data set [29], the Cmax is 174 µg/mL. In data set [30], this compound showed a half-life of 1.96 h. The “fold change (FC)” value in the data set on Pseudomonas aeruginosa [31] is recorded as 1. The deltalog10CFU with Pseudomonas aeruginosa [35] is -1.28 /ml.

Take `C[C@H]1COc2c(N3CCN(C)CC3)c(F)cc3c(=O)c(C(=O)O)cn1c23.C[C@H]1COc2c(N3CCN(C)CC3)c(F)cc3c(=O)c(C(=O)O)cn1c23.O` [LEVOFLOXACIN]: the MIC in the data set with Pseudomonas aeruginosa [4], against Pseudomonas aeruginosa [18] and with Pseudomonas aeruginosa [34] was 0.5 µg/mL each time.

`CCN1CCN(C(=O)N[C@@H](C(=O)N[C@@H]2C(=O)N3[C@@H]2SC(C)(C)[C@@H]3C(=O)O)c2ccccc2)C(=O)C1=O` [PIPERACILLIN]: the MIC with Pseudomonas aeruginosa [4] was 4 µg/mL (≈ 7.73 µM); in the data set on Pseudomonas aeruginosa [34], 64 µg/mL (≈ 124 µM).

For the compound `C[C@@H](O)[C@H]1C(=O)N2C(C(=O)O)=C(SCCNC=N)C[C@H]12` [IMIPENEM ANHYDROUS], the MIC is 2 µg/mL (≈ 6.68 µM) against Pseudomonas aeruginosa [4], 16 µg/mL (≈ 53.4 µM) against Pseudomonas aeruginosa [18], 16 µg/mL (≈ 53.4 µM) against Pseudomonas aeruginosa [19] and 4 µg/mL (≈ 13.4 µM) against Pseudomonas aeruginosa [20].
